Entries after “also recorded” stand apart in the source; their conditions may differ.
Experiments:
[1] = tested on: vascular endothelial cell; settings: in vitro; cited from earlier work
mouse xenograft models = mouse xenograft models (Shaheen et al., 1999); cited from earlier work
[2] = tested on: TG(VEGFR2:G-RCFP) transgenic zebrafish embryos; experiment: Angiogenesis inhibitor assay in TG(VEGFR2:G-RCFP) transgenic zebrafish embryos with fluorescent blood vessels; settings: for Intersegmental vessel formation: treated overnight from 13-somite stage (approximately 15 hpf); for Phenotypic response: cell wrapped over the compound's rows, in full: Dorsal aorta, caudal veins, present. Intersegmental vessels absent. Cranial vessels reduced in number.; for Concentrations of the compounds required to see these effects (complete block of intersegmental vessel formation) / Blood vessels in the head that form by angiogenesis: overnight application; for Blood vessels in the head that form by angiogenesis: 10 μM for SU5416 and 15 μM for SU6668; for Effect on pre-existing blood vessels: six-hour treatment at 24 hpf, well-established primary vasculature not affected; for Migration pattern of VEGFR2 expressing cells toward the midline: treated embryos at the 18 somite stage, versus control
zebrafish blood vessels = settings: Chan et al., 2002; cited from earlier work
[3] = patients treated in clinical trials; cited from earlier work
[4] = 10 μM, stage at treatment 6 hpf, time treated 24 h
[5] = 10 μM, stage at treatment 15 hpf, time treated 24 h
[6] = 10 μM, stage at treatment 24 hpf, time treated 6 h

Cc1[nH]c(/C=C2\C(=O)Nc3ccccc32)c(C)c1CCC(=O)O [SU6668]
VEGF-induced vascular endothelial cell proliferation [1]: inhibit VEGF-induced vascular endothelial cell proliferation in vitro
Metastases, microvessel formation and apoptosis (mouse xenograft models): inhibit the formation of metastases and microvessel formation and increase apoptosis of both tumor cells and tumor endothelial cells
Percent full effect [2, 4]: 100%
Percent full effect [2, 5]: 100%
Percent full effect [2, 6]: 87%
Intersegmental vessel formation ([2]; 15 μM, embryo at 30 hpf): No intersegmental vessels are observed; also recorded: completely blocked intersegmental vessel formation
Percent full effect ([2]; 15 μM, stage at treatment 6 hpf, time treated 24 h): 100%
Percent full effect ([2]; 15 μM, stage at treatment 15 hpf, time treated 6 h): 100%
Percent full effect ([2]; 15 μM, stage at treatment 15 hpf, time treated 24 h): 100%
Percent full effect ([2]; 15 μM, stage at treatment 24 hpf, time treated 6 h): 100%
Phenotypic response [2]: Dorsal aorta, caudal
Intersegmental vessels after recovery ([2]; larva at 5 dpf, treated overnight with 15 μM at 2 dpf, recovered 3 days in fresh water, some vessels migrating abnormally): Intersegmental vessels are reforming
Concentrations of the compounds required to see these effects (complete block of intersegmental vessel formation) [2]: 15 µM
Blood vessels in the head that form by angiogenesis [2]: blood vessels in the head that form by angiogenesis were not observed
Effect on pre-existing blood vessels [2]: disrupted pre- existing blood vessels
Migration pattern of VEGFR2 expressing cells toward the midline [2]: No difference was observed in the migration pattern of VEGFR2 expressing cells

Clc1ccc(Nc2nnc(Cc3ccncc3)c3ccccc23)cc1 [PTK787/ZK222584]
Formation of zebrafish blood vessels (zebrafish blood vessels): affect the formation of zebrafish blood vessels

Cc1cc(C)c(/C=C2\C(=O)Nc3ccccc32)[nH]1 [SU5416]
Plasma level [3]: 5 µM
VEGF-induced vascular endothelial cell proliferation [1]: inhibit VEGF-induced vascular endothelial cell proliferation in vitro
Metastases, microvessel formation and apoptosis (mouse xenograft models): inhibit the formation of metastases and microvessel formation and increase apoptosis of both tumor cells and tumor endothelial cells
Percent full effect ([2]; 5 μM, stage at treatment 6 hpf, time treated 24 h): 100%
Percent full effect ([2]; 5 μM, stage at treatment 15 hpf, time treated 24 h): 77%
Percent full effect ([2]; 5 μM, stage at treatment 24 hpf, time treated 6 h): 60%
Disruption of pre-existing intersegmental vessels ([2]; 10 μM for six hours beginning at 24 hpf, embryo at 30 hpf): A single intersegmental vessel (indicated by arrow) remains
Intersegmental vessel formation ([2]; 10 μM, embryo at 30 hpf): No intersegmental vessels are observed; also recorded: completely blocked intersegmental vessel formation
Percent full effect [2, 4]: 100%
Percent full effect ([2]; 10 μM, stage at treatment 15 hpf, time treated 6 h): 100%
Percent full effect [2, 5]: 100%
Percent full effect [2, 6]: 100%
Phenotypic response [2]: Dorsal aorta, caudal
Recovery time of treated embryos ([2]; comparison SU5416 versus SU6668): required a longer recovery time than those treated with SU6668
Distribution in treated embryos ([2]; difficult to remove even after many hours of soaking in fresh water): highly concentrated in the yolk of treated embryos
Concentrations of the compounds required to see these effects (complete block of intersegmental vessel formation) [2]: 10 µM
Blood vessels in the head that form by angiogenesis [2]: blood vessels in the head that form by angiogenesis were not observed
Effect on pre-existing blood vessels [2]: disrupted pre- existing blood vessels
Migration pattern of VEGFR2 expressing cells toward the midline [2]: No difference was observed in the migration pattern of VEGFR2 expressing cells

Reference: patent US20040143865A1, “Transgenic zebrafish models for angiogenesis” (priority 2002, published 2004)
